From patent US10590129B2 (Incozen Therapeutics Pvt. Ltd., priority 2010, dated 2020)
Like-named read-outs stand apart in the source and are kept apart here.

Key:
[1] = biological target: T1, c-Met (Homo sapiens, UniProt P08581); conditions: cited from earlier work
[2] = biological target: RON (Homo sapiens, UniProt Q04912); conditions: cited from earlier work
[3] = biological target: T1, c-Met; assay: Inhibition of c-Met kinase phosphorylation in NCI-H441 cells (cell based ELISA); parameters: endogenous in cells; host or cells: NCI-H441; conditions: 1 h
Method: Inhibition of c-Met Kinase Phosphorylation in NCI—H441 Cells:
Inhibition of Met phosphorylation was determined using a cell based ELISA assay according to the following schedule:
Day 1: NCI—H441 cells were plated in 96-well plates in complete growth medium.
Day 2: Inhibitors at the desired concentration were added to the plates, incubated for 1 h and lysed subsequently. Lysates were transferred to NUNC Maxisorp plates coated with anti-cMet receptor antibody. Phopho-tyrosine mAb and HRP-lined anti-mouse IgG were used as primary and secondary antibodies respectively. Optical density was measured on a microplate reader (BMG Labtech., Germany) at […].

[4] = biological target: T2, Met kinase (Homo sapiens, UniProt P08581); assay: MET kinase assay (colorimetric determination of c-Met kinase activity, HTScan Met Kinase Assay Kit); format: biochemical; parameters: purchased Cell Signalling Technology, Beverly, Mass; conditions: for IC50: c-Met kinase
T2 sequence (P08581 25-1390): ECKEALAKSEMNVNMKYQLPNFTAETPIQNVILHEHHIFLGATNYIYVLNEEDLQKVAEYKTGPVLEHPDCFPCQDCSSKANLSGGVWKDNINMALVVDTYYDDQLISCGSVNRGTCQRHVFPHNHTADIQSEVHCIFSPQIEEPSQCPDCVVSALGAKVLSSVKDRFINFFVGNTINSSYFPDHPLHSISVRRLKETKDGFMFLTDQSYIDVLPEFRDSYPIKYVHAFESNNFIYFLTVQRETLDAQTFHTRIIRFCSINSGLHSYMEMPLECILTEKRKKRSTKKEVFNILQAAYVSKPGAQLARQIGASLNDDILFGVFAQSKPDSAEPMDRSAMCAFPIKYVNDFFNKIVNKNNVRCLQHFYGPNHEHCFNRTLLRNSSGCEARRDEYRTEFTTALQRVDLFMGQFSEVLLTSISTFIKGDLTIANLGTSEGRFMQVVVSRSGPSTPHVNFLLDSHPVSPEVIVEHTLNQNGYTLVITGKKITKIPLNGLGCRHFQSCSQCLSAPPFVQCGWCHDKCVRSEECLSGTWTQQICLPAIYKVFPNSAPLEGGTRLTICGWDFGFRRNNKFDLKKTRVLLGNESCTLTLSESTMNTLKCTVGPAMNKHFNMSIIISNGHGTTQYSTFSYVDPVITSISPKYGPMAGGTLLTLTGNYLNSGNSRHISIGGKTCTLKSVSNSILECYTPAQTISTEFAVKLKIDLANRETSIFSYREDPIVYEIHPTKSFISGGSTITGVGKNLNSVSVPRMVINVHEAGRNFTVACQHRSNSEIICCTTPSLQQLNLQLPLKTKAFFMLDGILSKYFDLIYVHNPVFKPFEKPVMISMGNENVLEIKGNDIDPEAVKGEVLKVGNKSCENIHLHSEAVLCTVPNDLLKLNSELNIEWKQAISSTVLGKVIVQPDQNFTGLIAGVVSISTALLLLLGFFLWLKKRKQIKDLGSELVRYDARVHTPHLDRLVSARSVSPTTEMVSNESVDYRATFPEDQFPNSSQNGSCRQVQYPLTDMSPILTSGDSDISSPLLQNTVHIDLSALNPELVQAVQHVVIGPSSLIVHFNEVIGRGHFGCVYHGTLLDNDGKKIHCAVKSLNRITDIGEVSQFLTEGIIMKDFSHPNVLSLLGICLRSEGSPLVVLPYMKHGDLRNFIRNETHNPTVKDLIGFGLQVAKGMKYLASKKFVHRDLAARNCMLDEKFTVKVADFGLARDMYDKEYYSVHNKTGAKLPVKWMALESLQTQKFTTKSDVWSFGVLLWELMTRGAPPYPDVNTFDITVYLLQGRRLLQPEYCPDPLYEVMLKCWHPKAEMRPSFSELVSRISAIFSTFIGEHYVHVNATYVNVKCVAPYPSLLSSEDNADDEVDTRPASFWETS
From the text: 1. MET Kinase Assay Protocol:
Colorimetric Determination of c-Met Kinase Activity
The receptor tyrosine kinase c-Met is a heterodimeric transmembrane glycoprotein involved in several cellular processes that aid in tumor progression. Phosphorylation of the tyrosine residues in the c-Met kinase domain is critical for its activity and the resulting down-stream effects. The colorimetric assay allows detection of the phosphorylated form of a biotinylated peptide upon activation of human recombinant Met kinase.
MET Kinase Assay Protocol:
c-Met Kinase activity shall be determined using an HTScan® Met Kinase Assay Kit (Cell Signalling Technology, Beverly, Mass.) with modifications. All incubations are carried out at room temperature. Briefly, 12.5 μl of a 4× reaction cocktail (DTT/Kinase buffer containing appropriate quantity of human Met kinase) is added to each well of a 96-well plate containing 12.5 μl pre-diluted compound of interest and incubated for 5 minutes. After the initial incubation, 25 μl/well of 2×ATP/biotinylated peptide is added and incubated for an additional 30 minutes. The reaction is terminated by the addition of 50 μl/well stop buffer (50 mM EDTA, pH 8.0). The reaction mixture (25 μl/well) is then transferred to a streptavidin coated plate (Perkin Elmer, Cat#4009-0010) containing 75 μl dH2O and incubated for 60 minutes. The plate is washed with 200 μl/well wash buffer (1×PBS, 0.05% Tween-20). After washing, 100 μl/well phospho-tyrosine mAb (1:1000 in wash buffer containing 1% BSA) is added and incubated for 60 minutes. After another round of washes, 100 μl/well europium labelled anti-mouse IgG (1:500 in wash buffer containing 1% BSA) is added and incubated for an additional 30 minutes. Following additional washes, 100 μl/well Delfia® enhancement solution (Perkin Elmer, Cat#1244-105) is added and incubated for 45 minutes. Florescence is measured on a microplate reader (BMG Labtech., Germany) at 340 nm (excitation) and 615 nm (emission) for calculating % inhibition. Data generated can be analyzed further using Graphpad Prism (Graphpad software, San Diego Calif.) for determination of IC50.

[5] = biological target: T1, c-Met; assay: Inhibition of c-Met kinase phosphorylation in MKN-45 cells (cell based ELISA); parameters: endogenous in cells; host or cells: MKN-45; conditions: 1 h
Method: Inhibition of c-Met Kinase Phosphorylation in MKN-45 Cells:
MKN45 cells are a prototype of “c-Met addicted” cells having constitutively activated c-Met kinase similar to that observed in sub-sects of gastric or hepatocellular cancer patients with dysregulated c-Met kinase activity. Inhibition of Met phosphorylation was determined using a cell based ELISA assay according to the following schedule:
Day 1: MKN-45 cells were plated in 96-well plates in complete growth medium.
Day 2: Inhibitors at the desired concentration were added to the plates and incubated for 1 h and lysed subsequently.
Lysates were transferred to NUNC Maxisorp plates coated with anti-cMet receptor antibody. Phopho-tyrosine mAb and HRP-lined anti-mouse IgG were used as primary and secondary antibodies respectively. Optical density was measured on a microplate reader (BMG Labtech., Germany) at […]. Inhibition of c-Met phosphorylation in this cell line indicates a therapeutic potential for test compounds in patients diagnosed with cancers caused by aberrant c-Met kinase signalling.

[6] = system: MKN-45 cells; assay: Inhibition of MKN-45 proliferation (MTT); format: cell-based, human; conditions: for GI50 / inhibition at 0.1 µM: Homo sapiens, MKN-45, MKN-45 proliferation; for Inhibition (% Inhibition of MKN-45 proliferation) / inhibition at 0.1 µM: 0.1 μM
Summary of the method: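 High-Met human gastric adenocarcinoma MKN-45 cells plated in complete growth medium, compounds added next day and viability read 3 days later by MTT dye reduction.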

[7] = system: Akt; assay: Inhibition of Akt phosphorylation in NCI-H441 cells (western blot, pAkt S473); format: cell-based; conditions: Homo sapiens
Method: (§1) Inhibition of Akt Phosphorylation in MKN-45 or NCI-11441 Cells:
(§2) Akt is a serine-threonine kinase and a downstream marker regulated by c-Met kinase via the PI3K pathway. Once phosphorylated, Akt regulates several end processes including cell survival and growth. Cells were treated with 0−1000 nM of test compounds, lysed, and the proteins separated on a 10% SDS-PAGE. Following separation, proteins were transferred onto a nitrocellulose membrane and detected by chemiluminescence after incubation with pAkt S473 mAb (primary) and rabbit anti-mouse Ab (secondary). Intensity of the bands was determined using ImageJ 1.42q (NIH, USA) and normalized to Actin (loading control).

[8] = system: Akt; assay: Inhibition of Akt phosphorylation in MKN-45 cells (western blot, pAkt S473); format: cell-based; conditions: Homo sapiens
Method: as §1, §2

[9] = biological target: T2, Met kinase; assay: Inhibition of HGF-induced Met phosphorylation in MDA-MB-231 cells; format: cell-based; parameters: endogenous in cells; host or cells: MDA-MB-231; conditions: HGF 50 ng/ml, read-out: HGF stimulated Met phosphorylation (IC50)
[10] = system: MKN-45 cells; assay: Induction of apoptosis in MKN-45 cells (caspase-3 activity); format: cell-based, human; conditions: @ 3 μM, 24 h, caspase-3, percent of maximum response
Method: 6. Induction of Apoptosis in MKN-45 Cells:
Induction of Caspase 3 was measured fluorimetrically. Cells were incubated with desired concentrations of the compound for 24 h. After incubation, cells were harvested and counted. An equal number of viable cells per well (0.3×10^6 cells) were used for determination of caspase-3 activity. Increase in apoptosis manifested by an elevation in caspase-3 levels was determined using a Caspase-3 kit from Millipore. Data are expressed as a percent of the maximum response (100%).

T1 sequence (P08581 25-1390): as above
RON, sequence (Q04912 25-1400, species assumed): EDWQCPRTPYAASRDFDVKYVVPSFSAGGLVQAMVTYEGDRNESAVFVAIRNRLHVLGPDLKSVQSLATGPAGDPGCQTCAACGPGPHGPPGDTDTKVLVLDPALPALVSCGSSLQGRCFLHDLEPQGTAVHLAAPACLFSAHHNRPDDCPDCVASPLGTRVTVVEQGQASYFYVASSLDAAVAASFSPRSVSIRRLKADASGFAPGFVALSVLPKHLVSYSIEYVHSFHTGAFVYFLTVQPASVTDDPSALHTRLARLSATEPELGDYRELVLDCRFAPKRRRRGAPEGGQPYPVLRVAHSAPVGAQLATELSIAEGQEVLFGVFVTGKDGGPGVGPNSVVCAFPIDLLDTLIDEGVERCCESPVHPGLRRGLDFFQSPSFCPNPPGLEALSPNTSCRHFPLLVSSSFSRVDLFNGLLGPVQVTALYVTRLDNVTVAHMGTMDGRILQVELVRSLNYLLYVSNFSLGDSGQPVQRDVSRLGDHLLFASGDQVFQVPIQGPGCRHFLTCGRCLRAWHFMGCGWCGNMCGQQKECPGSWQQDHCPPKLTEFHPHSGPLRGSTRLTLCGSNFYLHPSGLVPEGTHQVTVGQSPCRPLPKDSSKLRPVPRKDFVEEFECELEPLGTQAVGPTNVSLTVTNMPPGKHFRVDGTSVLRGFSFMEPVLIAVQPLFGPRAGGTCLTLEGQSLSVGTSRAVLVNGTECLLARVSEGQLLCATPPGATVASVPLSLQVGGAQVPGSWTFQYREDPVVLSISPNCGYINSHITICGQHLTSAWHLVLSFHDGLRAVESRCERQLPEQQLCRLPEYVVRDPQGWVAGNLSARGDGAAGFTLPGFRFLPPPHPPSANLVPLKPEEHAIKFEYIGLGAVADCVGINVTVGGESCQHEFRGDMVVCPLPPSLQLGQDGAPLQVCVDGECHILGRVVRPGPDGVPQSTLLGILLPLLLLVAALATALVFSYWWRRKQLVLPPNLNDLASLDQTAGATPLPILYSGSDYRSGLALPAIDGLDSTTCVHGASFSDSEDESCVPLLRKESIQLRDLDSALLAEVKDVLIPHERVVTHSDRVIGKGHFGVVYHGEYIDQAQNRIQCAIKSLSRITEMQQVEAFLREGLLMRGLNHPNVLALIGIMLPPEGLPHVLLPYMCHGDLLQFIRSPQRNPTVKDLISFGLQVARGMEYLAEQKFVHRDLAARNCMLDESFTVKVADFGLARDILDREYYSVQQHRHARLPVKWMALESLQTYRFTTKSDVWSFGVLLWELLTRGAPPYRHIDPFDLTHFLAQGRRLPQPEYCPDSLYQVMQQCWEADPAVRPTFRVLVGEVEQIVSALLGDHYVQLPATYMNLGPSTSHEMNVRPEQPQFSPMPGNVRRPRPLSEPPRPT

SMILES | IC50 [3] [nM] | inhibition at 1 µM [4] [%] | IC50 [4] [nM] | IC50 [5] [nM] | melting point [°C] | GI50 [6] [nM] | IC50 [7] [nM] | IC50 [8] [nM] | IC50 [9] [nM] | IC50 [1] [nM] | IC50 [2] [nM] | Apoptosis in MKN-45 cells (percentage induction) [10] | Inhibition (% Inhibition of MKN-45 proliferation) [6] | inhibition at 0.1 µM [6] [%]
COc1ccc2c(Oc3ccc(NC(=O)c4c(C)n(CC(C)(C)O)n(-c5ccccc5)c4=O)nc3)ccnc2c1 [AMG-458] | – | – | – | – | – | – | – | – | – | 4 | 9 | – | – | –
CNC(=O)c1ccc(-c2ccc3nnn(Cc4ccc5ncccc5c4)c3n2)cc1F [Ex 14, 2-Fluoro-N-methyl-4-(3-(quinolin-6-ylmethyl)-3H-[1,2,3]triazolo[4,5-b]pyridin-5-yl)benzamide] | 10 to 50 | 75 to 100 | 100 to 250 | 50 to 150 | 212 to 214 | 50 to 150 | – | – | – | – | – | – | – | –
NC(=O)c1ccc(-c2ccc3nnn(Cc4ccc5ncccc5c4)c3n2)cc1F [Ex 15, 2-Fluoro-4-(3-(quinolin-6-ylmethyl)-3H-[1,2,3]triazolo[4,5-b]pyridin-5-yl)benzamide] | 10 to 50 | 75 to 100 | 50 to 100 | 50 to 150 | 198 to 200 | 50 to 150 | ≤ 25 | 100 to 200 | ≤ 10 | – | – | A (A = >50 to 100%) | – | –
O=C(Nc1nc[nH]n1)c1ccc(-c2ccc3nnn(Cc4ccc5ncccc5c4)c3n2)cc1F [Ex 52, 2-Fluoro-4-(3-(quinolin-6-ylmethyl)-3H-[1,2,3]triazolo[4,5-b]pyridin-5-yl)-N-(1H-1,2,4-triazol-3-yl)benzamide] | ≤ 10 | 75 to 100 | ≤ 50 | ≤ 50 | 265 to 267 | ≤ 50 | ≤ 25 | 50 to 100 | – | – | – | A (A = >50 to 100%) | D (D = <25%) | –
NC(=O)c1ccc(-c2ccc3nnn(Cc4ccc5ncccc5c4)c3n2)cc1Cl [Ex 108, 2-Chloro-4-(3-(quinolin-6-ylmethyl)-3H-[1,2,3]triazolo[4,5-b]pyridin-5-yl)benzamide] | ≤ 10 | 75 to 100 | ≤ 50 | ≤ 50 | 212 to 215 | ≤ 50 | ≤ 25 | ≤ 25 | ≤ 10 | – | – | A (A = >50 to 100%) | – | 50 to 75

The next lines start with results.

IC50 [3] [nM] | inhibition at 1 µM [4] [%] | IC50 [4] [nM] | IC50 [5] [nM] | melting point [°C] | GI50 [6] [nM] | IC50 [7] [nM] | IC50 [8] [nM] | IC50 [9] [nM] | SMILES | IC50 [1] [nM] | IC50 [2] [nM] | Apoptosis in MKN-45 cells (percentage induction) [10] | Inhibition (% Inhibition of MKN-45 proliferation) [6] | inhibition at 0.1 µM [6] [%]
≤ 10 | 75 to 100 | ≤ 50 | ≤ 50 | 187 to 190 | ≤ 50 | ≤ 25 | ≤ 25 | ≤ 10 | CCNC(=O)c1ccc(-c2ccc3nnn(Cc4ccc5ncccc5c4)c3n2)cc1Cl [Ex 119, 2-Chloro-N-ethyl-4-(3-(quinolin-6-ylmethyl)-3H-[1,2,3]triazolo[4,5-b]pyridin-5-yl)benzamide] | – | – | A (A = >50 to 100%) | A (A = ≥75 to 100%) | –
– | 75 to 100 | ≤ 50 | ≤ 50 | – | ≤ 50 | 25 to 50 | 50 to 100 | ≤ 10 | NC(=O)c1c(F)cc(-c2ccc3nnn(Cc4ccc5ncccc5c4)c3n2)cc1F [Ex 130, 2,6-Difluoro-4-(3-(quinolin-6-ylmethyl)-3H-[1,2,3]triazolo[4,5-b]pyridin-5-yl)benzamide] | – | – | B (B = ≤50) | A (A = ≥75 to 100%) | –
≤ 10 | 75 to 100 | ≤ 50 | ≤ 50 | – | ≤ 50 | ≤ 25 | ≤ 25 | 10 to 50 | NC(=O)c1ccc(-c2ccc3nnn(Cc4cc5cccnc5cc4F)c3n2)cc1Cl [Ex 134, 2-Chloro-4-(3-((7-fluoroquinolin-6-yl)methyl)-3H-[1,2,3]triazolo[4,5-b]pyridin-5-yl)benzamide] | – | – | A (A = >50 to 100%) | – | 50 to 75
50 to 100 | – | – | 50 to 150 | – | 50 to 150 | 25 to 50 | – | – | OCCn1cc(-c2ccc3nnn(Cc4ccc5ncccc5c4)c3n2)cn1 [Ex 146, 2-(4-(3-(Quinolin-6-ylmethyl)-3H-[1,2,3]triazolo[4,5-b]pyridin-5-yl)-1H-pyrazol-1-yl)ethanol] | – | – | – | – | –
